Key:
Assay type in all cases: in vivo
[1] = tested on: western flower thrips (Frankliniella occidentalis); assay: Test E: control of western flower thrips on Soleil bean plant, contact and/or systemic; settings: held 6 days
Procedure: (§1) Test compounds were formulated using a solution containing 10% acetone, 90% water and 300 ppm X-77™ Spreader Lo-Foam Formula non-ionic surfactant containing alkylarylpolyoxyethylene, free fatty acids, glycols and isopropanol (Loveland Industries, Inc. Greeley, Colo., USA). The formulated compounds were applied in 1 mL of liquid through a SUJ2 atomizer nozzle with ⅛ JJ custom body (Spraying Systems Co. Wheaton, Ill., USA) positioned 1.27 cm (0.5 inches) above the top of each test unit. All experimental compounds in these tests were sprayed at 50 ppm, and the test was replicated three times. After spraying of the formulated test compound, each test unit was allowed to dry for 1 h and then a black, screened cap was placed on top. The test units were held for 6 days in a growth chamber at 25° C. and 70% relative humidity. Plant feeding damage was then visually assessed based on foliage consumed, and a pest mortality rating was also counted and calculated for each test unit.
For evaluating control of the western flower thrips (Frankliniella occidentalis) through contact and/or systemic means, the test unit consisted of a small open container with a 5-7-day-old Soleil Bean plant inside. Test compounds were formulated and sprayed as described for Test A. All experimental compounds in these tests were sprayed at 250 or 50 ppm as noted, and the test was replicated three times. After spraying, the test units were allowed to dry for 1 h, 22-27 adult thrips were added to each unit and then a black, screened cap was placed on top. The test units were held for 6 days at 25° C. and 45-55% relative humidity. A mortality rating was assessed along with a plant damage rating for each test unit.

[2] = tested on: diamondback moth (Plutella xylostella); assay: Test A: control of diamondback moth on radish plant, foliar spray; settings: sprayed at 50 ppm, held 6 days
From the text: For evaluating control of diamondback moth (Plutella xylostella) the test unit consisted of a small open container with a 12-14-day-old radish plant inside. This was pre-infested with about 50 neonate larvae that were dispensed into the test unit via corncob grits using a bazooka inoculator. The larvae moved onto the test plant after being dispensed into the test unit.
as §1

[3] = tested on: fall armyworm (Spodoptera frugiperda); assay: Test B: control of fall armyworm on corn (maize) plant, foliar spray; settings: sprayed at 50 ppm
Procedure: as §1
For evaluating control of fall armyworm (Spodoptera frugiperda) the test unit consisted of a small open container with a 4-5-day-old corn (maize) plant inside. This was pre-infested (using a core sampler) with 10-15 1-day-old larvae on a piece of insect diet. Test compounds were formulated and sprayed at 50 ppm as described for Test A and replicated three times. After spraying, the test units were maintained in a growth chamber and then the control efficacy was rated for each test unit as described for Test A.

Measured: levels of control efficacy (20% or less feeding damage or 80% or more mortality)

CC(C)CNC(=O)CNC(=O)c1ccc(C2=NOC(c3cc(C(F)(F)F)cc(C(F)(F)F)c3)(C(F)(F)F)C2)c2ccccc12 (stereo not shown) [Compound 102]
very good to excellent: [1]; sprayed at 50 ppm | [2] | [3]

CSCC(C)(C)NC(=O)c1ccc(C2=NOC(c3cc(Cl)cc(Cl)c3)(C(F)(F)F)C2)c2ccccc12 (stereo not shown) [Compound 27]
very good to excellent: [1]; sprayed at 50 ppm | [1]; sprayed at 250 ppm | [2] | [3]

CCSCCNC(=O)c1ccc(C2=NOC(c3cc(C(F)(F)F)cc(C(F)(F)F)c3)(C(F)(F)F)C2)c2ccccc12 (stereo not shown) [Compound 92]
very good to excellent: [1]; sprayed at 50 ppm | [1]; sprayed at 250 ppm | [2] | [3]

CC(NC(=O)c1ccc(C2=NOC(c3cc(C(F)(F)F)cc(C(F)(F)F)c3)(C(F)(F)F)C2)c2ccccc12)C(=O)NC(C)C(F)(F)F (stereo not shown) [Compound 121]
very good to excellent: [1]; sprayed at 250 ppm | [2] | [3]

CSCCNC(=O)c1ccc(C2=NOC(c3cccc(C(F)(F)F)c3)(C(F)(F)F)C2)c2ccccc12 (racemic) [Compound 34]
very good to excellent: [1]; sprayed at 50 ppm | [1]; sprayed at 250 ppm | [2] | [3]

CSCCNC(=O)c1ccc(C2=NOC(c3cc(Br)cc(Br)c3)(C(F)(F)F)C2)c2ccccc12 (stereo not shown) [Compound 21]
very good to excellent: [1]; sprayed at 50 ppm | [1]; sprayed at 250 ppm | [2] | [3]

CCSCCNC(=O)c1ccc(C2=NOC(c3cccc(C(F)(F)F)c3)(C(F)(F)F)C2)c2ccccc12 (racemic) [Compound 51]
very good to excellent: [1]; sprayed at 50 ppm | [1]; sprayed at 250 ppm | [2] | [3]

C[S+]([O-])CCNC(=O)c1ccc(C2=NOC(c3cc(Cl)cc(Cl)c3)(C(F)(F)F)C2)c2ccccc12 (stereo not shown) [Compound 18]
very good to excellent: [1]; sprayed at 50 ppm | [1]; sprayed at 250 ppm | [2] | [3]

CNC(=O)CNC(=O)c1ccc(C2=NOC(c3cc(Br)cc(C(F)(F)F)c3)(C(F)(F)F)C2)c2ccccc12 (racemic) [Compound 143]
very good to excellent: [1]; sprayed at 50 ppm | [2] | [3]

CCS(=O)(=O)CCNC(=O)c1ccc(C2=NOC(c3cc(C(F)(F)F)cc(C(F)(F)F)c3)(C(F)(F)F)C2)c2ccccc12 (stereo not shown) [Compound 99]
very good to excellent: [1]; sprayed at 50 ppm | [2] | [3]

CCCNC(=O)CNC(=O)c1ccc(C2=NOC(c3cc(Cl)cc(C(F)(F)F)c3)(C(F)(F)F)C2)c2ccccc12 (stereo not shown) [Compound 117]
very good to excellent: [1]; sprayed at 50 ppm | [1]; sprayed at 250 ppm | [2] | [3]

CC(C)NC(=O)CNC(=O)c1ccc(C2=NOC(c3cc(C(F)(F)F)cc(C(F)(F)F)c3)(C(F)(F)F)C2)c2ccccc12 (racemic) [Compound 40]
very good to excellent: [1]; sprayed at 50 ppm | [1]; sprayed at 250 ppm | [2] | [3]

O=C(CNC(=O)c1ccc(C2=NOC(c3cc(Cl)cc(OC(F)(F)F)c3)(C(F)(F)F)C2)c2ccccc12)NCC(F)(F)F (racemic) [Compound 136]
very good to excellent: [1]; sprayed at 50 ppm | [2] | [3]

CCNC(=O)C(C)NC(=O)c1ccc(C2=NOC(c3cc(C(F)(F)F)cc(C(F)(F)F)c3)(C(F)(F)F)C2)c2ccccc12 (stereo not shown) [Compound 88]
very good to excellent: [1]; sprayed at 50 ppm | [1]; sprayed at 250 ppm | [2] | [3]

CC(C)CNC(=O)C(C)NC(=O)c1ccc(C2=NOC(c3cc(C(F)(F)F)cc(C(F)(F)F)c3)(C(F)(F)F)C2)c2ccccc12 (mixture of isomers) [Compound 93]
very good to excellent: [1]; sprayed at 50 ppm | [2] | [3]

O=C(NCCO)c1ccc(C2=NOC(c3cc(Cl)cc(Cl)c3)(C(F)(F)F)C2)c2ccccc12 (stereo not shown) [Compound 11]
very good to excellent: [1]; sprayed at 50 ppm | [1]; sprayed at 250 ppm | [2] | [3]

CC(C)NC(=O)CNC(=O)c1ccc(C2=NOC(c3cc(Cl)cc(C(F)(F)F)c3)(C(F)(F)F)C2)c2ccccc12 (stereo not shown) [Compound 63]
very good to excellent: [1]; sprayed at 50 ppm | [1]; sprayed at 250 ppm | [2] | [3]

CC(C)NC(=O)C(C)NC(=O)c1ccc(C2=NOC(c3cc(C(F)(F)F)cc(C(F)(F)F)c3)(C(F)(F)F)C2)c2ccccc12 (stereo not shown) [Compound 87]
very good to excellent: [1]; sprayed at 250 ppm | [2] | [3]

CC(C)(C)NC(=O)CNC(=O)c1ccc(C2=NOC(c3cc(Cl)cc(Cl)c3)(C(F)(F)F)C2)c2ccccc12 (stereo not shown) [Compound 24]
very good to excellent: [1]; sprayed at 250 ppm | [2] | [3]

CC(C)NC(=O)C(C)NC(=O)c1ccc(C2=NOC(c3cc(C(F)(F)F)cc(C(F)(F)F)c3)(C(F)(F)F)C2)c2ccccc12 (mixture of isomers) [Compound 83]
very good to excellent: [1]; sprayed at 50 ppm | [1]; sprayed at 250 ppm | [2] | [3]

O=C(CNC(=O)c1ccc(C2=NOC(c3cc(Cl)c(Cl)c(Cl)c3)(C(F)(F)F)C2)c2ccccc12)NCC(F)(F)F (stereo not shown) [Compound 19]
very good to excellent: [1]; sprayed at 50 ppm | [1]; sprayed at 250 ppm | [2] | [3]

— patent US8410153B2, “Naphthalene isoxazoline invertebrate pest control agents” (E.I. du Pont de Nemours and Company, priority 2007, dated 2013)
